≈ marks a conversion by molar mass, not a printed value. Like-named read-outs stand apart in the source and are kept apart here. Some results are limits rather than exact numbers.

The subject of assay [1] is E. coli ATCC 25922. The experiment in a line: MIC control strain. The conditions noted are these: QC organism, Example 13.
Assay [2] deals with fungal pathogens. The experiment in a line: Antifungal activity, NIH/NIAID sponsored study. The format is cell-based. The conditions noted are these: 100% endpoint.
Assay [3] has as its system C. parapsilosis ATCC 22019. The experiment in a line: Antifungal broth microdilution (Example 13), QC organism. In kind it is cell-based, Candida parapsilosis. The settings on record: comparators, single value. Background: In broth dilution the organism is exposed to a series of concentrations in liquid medium.
Assay [4] has as its system Candida krusei. The settings on record: C. krusei ATCC 6258, CLSI established QC range, cited from earlier work.
Assay [5] has as its system Aspergillus spp. The experiment in a line: Antifungal broth microdilution (Example 13). In kind it is cell-based, A. niger, A. terreus, A. fumigatus, A. flavus.
The test system of assay [6] is Candida krusei. The experiment in a line: Antifungal broth microdilution (Example 13). The format is cell-based. The settings on record: C. krusei ATCC 6258, comparators, single value.
Assay [7] relates to Aspergillus spp. The conditions noted are these: cited from earlier work.
The test system of assay [8] is S. aureus ATCC 29213. The experiment in a line: MIC control strain. The settings on record: QC organism, Example 13.
The subject of assay [9] is C. parapsilosis ATCC 22019. The settings on record: C. parapsilosis ATCC 22019, CLSI established QC range, cited from earlier work.

Turning to `C[C@@H](c1ncncc1F)[C@](O)(Cn1cncn1)c1ccc(F)cc1F` [Voriconazole], the “MIC 24 hr” value in assay [1] was >64; in assay [3] (24 hr), 0.12 µg/mL (≈ 0.344 µM); in assay [5] (A. flavus ATCC 204304), 0.12 µg/mL (≈ 0.344 µM); in assay [5] (A. fumigatus ATCC MYA-3626) it was 0.25 µg/mL (≈ 0.716 µM); in assay [6] (24 hr), 0.12 µg/mL (≈ 0.344 µM); in assay [8], >64. For the same compound, the MIC in assay [2] (Aspergillus fumigatus, read-out: Antifungal activity, MIC 100%, A. fumigatus AF1) is 0.5 µg/mL (≈ 1.43 µM); in assay [2] (Aspergillus fumigatus, read-out: Antifungal activity, MIC 100%, A. fumigatus AF2) it was 4 µg/mL (≈ 11.5 µM); in assay [2] (Aspergillus fumigatus, read-out: Antifungal activity, MIC 100%, A. fumigatus AF3), 8 µg/mL (≈ 22.9 µM); in assay [2] (Blastomyces dermatitidis, read-out: Antifungal activity, MIC 100%, B. dermatitidis BD1), 0.125 µg/mL (≈ 0.358 µM); in assay [2] (Blastomyces dermatitidis, read-out: Antifungal activity, MIC 100%, B. dermatitidis BD2), ≤ 0.03 µg/mL; in assay [2] (Blastomyces dermatitidis, read-out: Antifungal activity, MIC 100%, B. dermatitidis BD3) it was 0.06 µg/mL (≈ 0.172 µM). In addition, the MIC in assay [2] (Paecilomyces variotii, read-out: Antifungal activity, MIC 100%, P. variotii CLSI QC) was 0.125 µg/mL (≈ 0.358 µM). Moreover, the MIC 48 hr in [3] (48 hr) was 0.12 µg/mL (≈ 0.344 µM); in [5] (A. flavus ATCC 204304) it was 2 µg/mL (≈ 5.73 µM); in assay [5] (A. fumigatus ATCC MYA-3626), 0.5 µg/mL (≈ 1.43 µM); in assay [6] (48 hr), 0.5 µg/mL (≈ 1.43 µM). In addition, the “QC Range 24 hr” value in [4] (24 hr) is on record as 0.06-0.5; in [9] (24 hr), 0.015-0.12. In addition, the “QC Range 48 hr” value is 0.12-1 in assay [4] (48 hr); 0.5-4 in assay [7] (A. flavus ATCC 204304, CLSI established QC range); 0.25-1 in assay [7] (A. fumigatus ATCC MYA-3626, CLSI established QC range); 0.03-0.25 in assay [9] (48 hr).

What is called MIC is the smallest concentration in the dilution series that meets the test's criterion for growth inhibition.
